The nature of data set [1]: Solubility in 50 mM phosphate buffer at pH 7.4. As to conditions: suitability for IV dosage forms. In kind it is physicochemical.
Data set [2] relates to BT474 (human breast carcinoma). The data set can be described thus: Methylene Blue Growth Inhibition Assay. Type of data set: cell-based. As to conditions: BT-474, 72 h, BT474, 3 days incubation. On the procedure:
(§1) Tumor cell lines used in this assay were BT474 (human breast carcinoma) and LNCaP (lymph node metastasis of prostate cancer). HFF (normal human foreskin fibroblast) was also included. All cell lines were cultured in RPMI 1640 media (Invitrogen Corporation 22400-071) containing 10% Fetal Bovine Serum (FBS) at 37° C. in a humidified 5% CO2 incubator. Cells were harvested using trypsin/EDTA, counted using a hemacytometer and plated in 96-well tissue culture plates (Costar 35-3075), 100 uL per well, at the following densities: BT474 15,000 cells/well, LNCaP 5,000 cells/well and HFF 5,000 cells/well. 10 mM stocks of compounds in DMSO were serially diluted in DMSO through nine 3-fold dilutions in 96-well plates (Costar Corning 3363), and stored at −80 C. The next day, compound dilutions were thawed and 4 uL of each transferred to 662 uL RPMI 1640+100 ug/mL gentamicin, resulting in twice the final required test concentrations. 100 uL of compounds diluted in RPMI 1640 were added to all cell lines. The final concentration of DMSO in all wells, including controls, was 0.3%. Cells were incubated at 37 C, 5% CO2 for 3 days. Medium was removed by aspiration. Cell biomass was estimated by staining cells with 80 uL methylene blue (Sigma M9140, 0.5% in 50:50 ethanol:water), and incubating at room temperature for 1 hour. Stain was aspirated and the plates rinsed by immersion in water, then air-dried. Stain was released from cells by adding 100 uL of solubilizing solution (1% N-lauroyl sarcosine, sodium salt, Sigma L5125, in PBS) and incubating at room temperature for at least 30 minutes. Plates were shaken and the optical density at 620 nm was measured on a microplate reader. Percent inhibition of cell growth was calculated relative to vehicle-treated control wells. Concentration of compound that inhibits 50% of cell growth (IC50) was interpolated using non-linear regression (Levenberg-Marquadt) and the equation, y=Vmax*(1−(x̂n/K̂n+x̂n)))+Y2. [Ref: Mager, M. E. (1972) Data Analysis in Biochemistry and Biophysics. New York: Academic Press]

Data set [3] deals with HFF (normal human foreskin fibroblast). Put plainly: Methylene Blue Growth Inhibition Assay. Type of data set: cell-based. Particulars: 72 h, HFF normal cells, 3 days incubation. As to the method: as §1
Data set [4] concerns LNCaP (lymph node metastasis of prostate cancer). Put plainly: Methylene Blue Growth Inhibition Assay. Type of data set: cell-based. Particulars: Homo sapiens, 72 h, 3 days incubation. As to the method:
as §1

As a reminder, the IC50 is the concentration needed to halve the response being measured. Read a high IC50 as lower potency.

Structures can show the parent of a compound that is named as a salt. Where only a bound is given, the exact number is not on record here.

Turning to `CCn1c(-c2nonc2N)nc2c(C#CC(C)(C)O)ncc(OC[C@H]3CCCNC3)c21` [Example 1, 4-(2-(4-amino-1,2,5-oxadiazol-3-yl)-1-ethyl-7-{[(3S)-3-piperidinylmethyl]oxy}-1H-imidazo[4,5-c]pyridin-4-yl)-2-methyl-3-butyn-2-ol], the “solubility (assessment in words)” value in data set [1] was “suitable for formulation into dosage forms for IV administration”. Moreover, the IC50 was 484 nM in data set [2], above 20 µM in data set [3] and 16 nM in data set [4].
`CCn1c(-c2nonc2N)nc2c(C#CC(C)(C)O)ncc(OC[C@@H]3CN(C)CCS3)c21` (single isomer, unassigned; enantiomer e1) [Example 7, 4-(2-(4-amino-1,2,5-oxadiazol-3-yl)-1-ethyl-7-{[(4-methyl-2-thiomorpholinyl)methyl]oxy}-1H-imidazo[4,5-c]pyridin-4-yl)-2-methyl-3-butyn-2-ol (enantiomer E1)]: the IC50 in data set [2] is 186 nM; in data set [3], above 30 µM; in data set [4] it was 83 nM.
Take `CCn1c(-c2nonc2N)nc2c(C#CC(C)(C)O)ncc(OCC3CCNC3)c21` (stereo not shown) [Example 5, 4-[2-(4-amino-1,25-oxadiazol-3-yl)-1-ethyl-7-[(3-Pyrrolidinylmethyl)oxy]-1H-imidazo[4,5-c]pyridin-4-yl]-2-methyl-3-butyn-2-ol, bis-trifluoroacetic acid salt]: the IC50 in data set [2] was 1030 nM; in data set [3], 20.1 µM; in data set [4], 459 nM.
The corresponding values for `CCn1c(-c2nonc2N)nc2c(C#CC(C)(C)O)ncc(OC[C@H]3CNCCO3)c21` [Example 2, 4-(2-(4-amino-1,2,5-oxadiazol-3-yl)-1-ethyl-7-{[(2R)-2-morpholinylmethyl]oxy}-1H-imidazo[4,5-c]pyridin-4-yl)-2-methyl-3-butyn-2-ol dihydrochloric acid salt] are 1000 nM, above 30 µM and 189 nM.
For the molecule `CCn1c(-c2nonc2N)nc2c(C#CC(C)(C)O)ncc(OC[C@@H]3CNCCS3)c21` (single isomer, unassigned; enantiomer e1) [Example 3, 4-{2-(4-amino-1,2,5-oxadiazol-3-yl)-1-ethyl-7-[(2-thiomorpholinylmethyl)oxy]-1H-imidazo[4,5-c]pyridin-4-yl}-2-methyl-3-butyn-2-ol dihydrochloride (enantiomer E1)], the “solubility (assessment in words)” value in data set [1] is reported as “suitable for formulation into dosage forms for IV administration”. Besides, the IC50 in data set [2] was 6 nM; in data set [3], above 30 µM; in data set [4], 4 nM.
`CCn1c(-c2nonc2N)nc2c(C#CC(C)(C)O)ncc(OC[C@H]3CCCN(C)C3)c21` [Example 6, 4-[2-(4-amino-1,2,5-oxadiazol-3-yl)-1-ethyl-7-({[(3S)-1-methyl-3-piperidinyl]methyl}oxy)-1H-imidazo[4,5-c]pyridin-4-yl]-2-methyl-3-butyn-2-ol, dihydrochloride]: the results for the IC50 in data set [2], in data set [3] and in data set [4] were 324 nM, 16.8 µM and 53 nM, respectively.
The corresponding values for `CCn1c(-c2nonc2N)nc2c(C#CC(C)(C)O)ncc(OC[C@@H]3CN(C)CCO3)c21` [Example 8, 4-[2-(4-amino-1,2,5-oxadiazol-3-yl)-1-ethyl-7-({[(2S)-4-methyl-2-morpholinyl]methyl}oxy)-1H-imidazo[4,5-c]pyridin-4-yl]-2-methyl-3-butyn-2-ol] are 665 nM, above 30 µM and 272 nM.
Take `CCn1c(-c2nonc2N)nc2c(C#CC(C)(C)O)ncc(OC[C@@H]3CNCCO3)c21` [Example 4, 4-(2-(4-amino-1,2,5-oxadiazol-3-yl)-1-ethyl-7-{[(2S)-2-morpholinylmethyl]oxy}-1H-imidazo[4,5-c]pyridin-4-yl)-2-methyl-3-butyn-2-ol]: the “solubility (assessment in words)” value in data set [1] is on record as “suitable for formulation into dosage forms for IV administration”. Also, the half-maximal inhibitory concentration (IC50) in data set [2] was 37 nM; in data set [3], above 25 µM; in data set [4], 15 nM.
The corresponding values for `CCn1c(-c2nonc2N)nc2c(C#CC(C)(C)O)ncc(OCC3CNCC(C)O3)c21` (stereo in doubt) [Example 9, 4-[2-(4-amino-1,2,5-oxadiazol-3-yl)-1-ethyl-7-({[(2R)-6-methyl-2-morpholinyl]methyl}oxy)-1H-imidazo[4,5-c]pyridin-4-yl]-2-methyl-3-butyn-2-ol, dihydrochloride] are “suitable for formulation into dosage forms for IV administration”, 80 nM, 9.39 µM and 49 nM.
